Data reported in US10189845B2, “4,6-substituted-pyrazolo[1,5-a]pyrazines as janus kinase inhibitors” (ARRAY BIOPHARMA INC., priority 2014, dated 2019).
pIC50: −log10 of the molar value. Where two headings read alike, the source gives them in different places.

Experiments:
Type in all cases: biochemical
[1] = molecular target: JAK2 (Homo sapiens (Human), UniProt O60674); experiment: JAK2 Inhibition Assay (Example C, Omnia kinase fluorescence peptide substrate assay); settings: JAK2 Enzyme IC50 1 mM ATP, averaged IC50 ranges
Excerpt: (§1) The assays described in Examples A, B, C and D for the determination of Tyk2, JAK1, JAK2 and JAK3 kinase activity, respectively, utilized the Omnia® Kinase fluorescence peptide substrate-based technology (Invitrogen). The specific components of the assay mixture are described in Examples A, B, C and D. In these assays, Mg^2+ is chelated upon phosphorylation of the Omnia peptide by the kinase to form a bridge between the chelation-enhanced fluorophore Sox and the phosphate, resulting in an increase in fluorescence emission at 485 nm when excited at […]. The reactions were therefore read at excitation 360 nm and emission was measured at 485 nm every 50 seconds for 45 minutes using a PerkinElmer EnVision Multilabel Plate Reader.
(§2) The final buffer conditions for Tyk2, JAK1, JAK2, and JAK3 assays were as follows: 25 mM HEPES, pH 7.4, 10 mM MgCl2, 0.01% Triton X-100 and 1 mM DTT.
(§3) Two-μL aliquots of these were transferred to a fresh plate for a ten-fold intermediate dilution with assay buffer. Five-μL aliquots of the diluted compounds were then transferred to 20-μL of assay mixtures described in Examples A, B, C and D for a final concentration of DMSO of 2%. […] For each plate, percent of control (POC) values were calculated for each well according to the following equation: […]
(§4) IC50's were estimated from the POC's using a standard 4-parameter logistic model:
(§5) The IC50 is defined as the concentration of inhibitor at which the POC equals 50 for the fitted curve.
(§6) Compounds of Formula I were screened for their ability to inhibit JAK2 using the general enzyme inhibition assay method, in which the assay mixture contained 1 mM ATP, 10 μM Omnia® Y7 peptide (Catalog # IVGN KNZ3071C, Invitrogen Corporation, Carlsbad, Calif.) and 4 nM JAK2 in a total volume of 25 μL. JAK2 was purchased from Invitrogen Corporation, Carlsbad, Calif. (catalog # IVGN PV4288).

[2] = molecular target: JAK3 (Homo sapiens (Human), UniProt P52333); experiment: JAK3 Inhibition Assay (Example D, Omnia kinase fluorescence peptide substrate assay)
Excerpt: as §1, §2, §3, §4, §5
as §6, with “JAK3” for “JAK2”, “2” for “4”, “PV4080).” for “PV4288).”

[3] = molecular target: Human Tyk2 kinase domain (Homo sapiens (Human), UniProt P29597); experiment: Tyk2 Inhibition Assay (Example A, Omnia kinase fluorescence peptide substrate assay); settings: TYK2 Enzyme IC50 1 mM ATP, averaged IC50 ranges
Excerpt: as §1, §2, §3, §4, §5
Compounds of Formula I were screened for their ability to inhibit Tyk2 using the general enzyme inhibition assay method, in which the assay mixture contained 1 mM ATP, 8 μM Omnia Y12 peptide (Catalog # IVGN KPZ3121C; Invitrogen Corporation, Carlsbad, Calif.) and 1 nM Tyk2 in a total volume of 25 μL. Human Tyk2 kinase domain, comprising amino acids 886 to 1187 with 10 additional histidine residues (histidine tag) on the carboxy terminus, was expressed and purified from bacculovirus in-house at Array BioPharma Inc. (Boulder, Colo.). The histidine tag was cleaved after purification using standard conditions.

[4] = molecular target: JAK1 (Homo sapiens (Human), UniProt P23458); experiment: JAK1 Inhibition Assay (Example B, Omnia kinase fluorescence peptide substrate assay)
Excerpt: as §1, §2, §3, §4, §5
as §6, with “JAK1” for “JAK2”, “8” for “10”, “Y12” for “Y7”, “KPZ3121C;” for “KNZ3071C,”, “12.5” for “4”, “PV4775).” for “PV4288).”

[5] = JAK1 Enzyme IC50 1 mM ATP, 1 mM ATP, averaged IC50 ranges

Chain of Human Tyk2 kinase domain (P29597 886-1187): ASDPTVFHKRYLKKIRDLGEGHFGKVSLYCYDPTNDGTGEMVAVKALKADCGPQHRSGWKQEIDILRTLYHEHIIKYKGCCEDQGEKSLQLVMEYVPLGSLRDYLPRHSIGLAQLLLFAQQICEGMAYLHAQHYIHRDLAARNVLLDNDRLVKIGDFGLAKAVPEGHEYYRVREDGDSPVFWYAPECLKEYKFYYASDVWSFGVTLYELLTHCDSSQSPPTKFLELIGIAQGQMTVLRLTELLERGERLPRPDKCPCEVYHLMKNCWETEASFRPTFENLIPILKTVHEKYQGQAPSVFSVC
Chain of JAK1 (P23458 whole entry): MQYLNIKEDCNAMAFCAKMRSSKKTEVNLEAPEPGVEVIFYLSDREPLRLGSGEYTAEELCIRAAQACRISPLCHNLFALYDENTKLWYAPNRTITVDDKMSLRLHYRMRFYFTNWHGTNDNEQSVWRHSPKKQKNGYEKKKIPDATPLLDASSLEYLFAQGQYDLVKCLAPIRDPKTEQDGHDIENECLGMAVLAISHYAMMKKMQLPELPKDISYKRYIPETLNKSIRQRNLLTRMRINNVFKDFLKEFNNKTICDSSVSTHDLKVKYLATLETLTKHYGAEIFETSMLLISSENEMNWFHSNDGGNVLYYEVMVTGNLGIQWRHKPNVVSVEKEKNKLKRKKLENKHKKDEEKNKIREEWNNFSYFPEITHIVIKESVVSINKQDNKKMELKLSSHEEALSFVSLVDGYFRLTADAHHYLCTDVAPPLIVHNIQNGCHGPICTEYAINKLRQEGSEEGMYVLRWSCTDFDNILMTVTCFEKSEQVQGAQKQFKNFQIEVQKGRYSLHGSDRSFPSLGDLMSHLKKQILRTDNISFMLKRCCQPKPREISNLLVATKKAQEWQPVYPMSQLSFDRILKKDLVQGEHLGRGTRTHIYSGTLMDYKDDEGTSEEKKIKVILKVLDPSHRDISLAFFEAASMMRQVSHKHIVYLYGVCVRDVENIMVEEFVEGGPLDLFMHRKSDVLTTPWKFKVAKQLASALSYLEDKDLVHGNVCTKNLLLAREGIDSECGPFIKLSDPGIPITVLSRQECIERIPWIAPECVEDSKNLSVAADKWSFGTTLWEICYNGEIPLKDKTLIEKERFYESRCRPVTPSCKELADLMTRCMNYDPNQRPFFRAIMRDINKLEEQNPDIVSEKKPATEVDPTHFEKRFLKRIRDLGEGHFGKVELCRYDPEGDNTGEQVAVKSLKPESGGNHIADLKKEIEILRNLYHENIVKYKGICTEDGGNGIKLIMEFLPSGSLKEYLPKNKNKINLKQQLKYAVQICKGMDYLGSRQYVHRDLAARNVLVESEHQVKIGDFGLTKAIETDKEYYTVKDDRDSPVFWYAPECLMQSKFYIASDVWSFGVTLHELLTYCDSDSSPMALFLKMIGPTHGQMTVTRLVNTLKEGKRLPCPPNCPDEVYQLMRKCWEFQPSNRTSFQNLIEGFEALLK
Chain of JAK3 (P52333 whole entry): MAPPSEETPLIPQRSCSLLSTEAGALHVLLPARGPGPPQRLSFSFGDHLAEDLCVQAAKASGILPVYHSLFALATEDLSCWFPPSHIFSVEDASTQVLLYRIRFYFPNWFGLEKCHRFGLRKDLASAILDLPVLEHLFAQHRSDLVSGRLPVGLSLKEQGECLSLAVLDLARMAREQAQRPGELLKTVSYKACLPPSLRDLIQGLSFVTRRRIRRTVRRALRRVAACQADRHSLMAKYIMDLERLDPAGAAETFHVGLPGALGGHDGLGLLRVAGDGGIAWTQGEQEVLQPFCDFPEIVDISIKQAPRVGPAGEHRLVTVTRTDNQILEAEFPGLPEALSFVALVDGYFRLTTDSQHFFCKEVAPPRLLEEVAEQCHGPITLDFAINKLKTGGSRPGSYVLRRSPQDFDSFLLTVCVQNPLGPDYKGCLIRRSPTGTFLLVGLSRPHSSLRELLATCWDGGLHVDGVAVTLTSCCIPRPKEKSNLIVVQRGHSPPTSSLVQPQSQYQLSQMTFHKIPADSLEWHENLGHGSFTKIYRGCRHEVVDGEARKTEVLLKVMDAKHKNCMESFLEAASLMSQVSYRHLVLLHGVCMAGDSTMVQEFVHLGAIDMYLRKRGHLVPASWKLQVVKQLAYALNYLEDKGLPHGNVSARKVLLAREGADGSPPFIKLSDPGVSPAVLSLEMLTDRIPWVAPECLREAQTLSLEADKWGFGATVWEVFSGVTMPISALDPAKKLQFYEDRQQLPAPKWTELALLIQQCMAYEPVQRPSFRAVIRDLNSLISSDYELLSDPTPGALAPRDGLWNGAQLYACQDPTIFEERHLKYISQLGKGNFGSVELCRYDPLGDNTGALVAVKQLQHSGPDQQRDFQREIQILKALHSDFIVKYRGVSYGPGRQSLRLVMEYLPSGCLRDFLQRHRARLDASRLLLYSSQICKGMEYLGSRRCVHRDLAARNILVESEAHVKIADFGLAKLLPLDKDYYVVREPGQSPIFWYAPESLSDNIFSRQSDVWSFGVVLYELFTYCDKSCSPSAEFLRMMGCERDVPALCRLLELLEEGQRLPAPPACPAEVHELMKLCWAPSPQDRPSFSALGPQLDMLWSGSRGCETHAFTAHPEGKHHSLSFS
Chain of JAK2 (O60674 whole entry): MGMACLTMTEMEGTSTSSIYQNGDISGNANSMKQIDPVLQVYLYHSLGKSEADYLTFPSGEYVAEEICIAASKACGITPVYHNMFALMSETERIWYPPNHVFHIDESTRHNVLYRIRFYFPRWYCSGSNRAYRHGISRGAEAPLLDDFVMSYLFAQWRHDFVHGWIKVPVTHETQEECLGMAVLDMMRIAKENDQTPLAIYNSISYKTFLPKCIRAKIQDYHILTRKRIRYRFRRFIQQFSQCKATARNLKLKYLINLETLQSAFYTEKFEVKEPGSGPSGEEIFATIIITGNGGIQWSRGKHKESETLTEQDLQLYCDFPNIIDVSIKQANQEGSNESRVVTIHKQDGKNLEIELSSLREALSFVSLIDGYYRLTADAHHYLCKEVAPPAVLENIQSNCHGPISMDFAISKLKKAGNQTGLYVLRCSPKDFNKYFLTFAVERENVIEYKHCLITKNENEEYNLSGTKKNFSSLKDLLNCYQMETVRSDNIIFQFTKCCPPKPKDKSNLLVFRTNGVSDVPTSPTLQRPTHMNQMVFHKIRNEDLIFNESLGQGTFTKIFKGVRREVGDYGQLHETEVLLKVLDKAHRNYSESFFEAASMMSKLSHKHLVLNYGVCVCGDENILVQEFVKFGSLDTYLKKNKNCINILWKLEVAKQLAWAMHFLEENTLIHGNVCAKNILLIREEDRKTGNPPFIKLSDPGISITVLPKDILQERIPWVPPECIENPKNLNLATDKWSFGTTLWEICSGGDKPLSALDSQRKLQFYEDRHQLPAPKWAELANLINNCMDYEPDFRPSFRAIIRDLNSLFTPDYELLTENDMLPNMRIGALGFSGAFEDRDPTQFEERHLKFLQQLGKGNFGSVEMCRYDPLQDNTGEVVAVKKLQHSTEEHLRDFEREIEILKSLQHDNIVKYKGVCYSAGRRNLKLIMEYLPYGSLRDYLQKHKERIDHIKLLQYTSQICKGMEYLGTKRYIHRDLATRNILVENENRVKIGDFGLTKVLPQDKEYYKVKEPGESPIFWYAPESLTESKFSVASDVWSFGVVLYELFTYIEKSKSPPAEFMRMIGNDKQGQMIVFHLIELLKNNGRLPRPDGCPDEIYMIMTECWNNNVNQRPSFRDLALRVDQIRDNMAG

Row | SMILES | pIC50 [1] | pIC50 [2] | pIC50 [3] | pIC50 [4, 5] | pIC50 [4]
1 | C[C@@H]1CC[C@@H]1n1cc(-c2nc(-c3cnn(C[C@@H](O)CO)c3)cn3nccc23)cn1 [Example 217, (R)-3-(4-(4-(1-(cis-2-methylcyclobutyl)-1H-pyrazol-4-yl)pyrazolo[1,5-a]pyrazin-6-yl)-1H-pyrazol-1-yl)propane-1,2-diol] | 6.00 to 7.00 | 5.00 to 6.00 | 6.00 to 7.00 | 5.00 to 6.00 | –
2 | CC[C@H](CC(F)(F)F)n1cc(-c2nc(-c3cnn(C[C@@H](O)CO)c3)cn3nccc23)cn1 (single isomer, unassigned) [Example 209] | 7.00 to 8.00 | – | 7.00 to 8.00 | – | –
3 | CCC(CC)n1cc(-c2nc(-c3cnn(C4CN(C(=O)CNC)C4)c3)cn3nccc23)cn1 [Example 187, 2-(methylamino)-1-(3-(4-(4-(1-(pentan-3-yl)-1H-pyrazol-4-yl)pyrazolo[1,5-a]pyrazin-6-yl)-1H-pyrazol-1-yl)azetidin-1-yl)ethanone bis(2,2,2-trifluoroacetate)] | 7.00 to 8.00 | 5.00 to 6.00 | 7.00 to 8.00 | – | 6.00 to 7.00
4 | CCC[C@H](C)n1cc(-c2nc(-c3cnn(C[C@H](O)CO)c3)cn3nccc23)cn1 [Example 86, (S)-3-(4-(4-(1-((S)-pentan-2-yl)-1H-pyrazol-4-yl)pyrazolo[1,5-a]pyrazin-6-yl)-1H-pyrazol-1-yl)propane-1,2-diol] | 7.00 to 8.00 | 5.00 to 6.00 | – | 6.00 to 7.00 | –
5 | CCC(CC(F)(F)F)n1cc(-c2nc(-c3cnn(C[C@@H](O)CO)c3)cn3nccc23)cn1 (single isomer, unassigned) [Example 210] | 6.00 to 7.00 | – | 6.00 to 7.00 | – | –
6 | CCC(CC)n1cc(-c2nc(-c3cnn([C@H]4CC[C@H](O)CC4)c3)cn3nccc23)cn1 [Example 118, trans-4-(4-(4-(1-(pentan-3-yl)-1H-pyrazol-4-yl)pyrazolo[1,5-a]pyrazin-6-yl)-1H-pyrazol-1-yl)cyclohexanol] | > 8.00 | – | 7.00 to 8.00 | – | 7.00 to 8.00
7 | CCC(CC)n1cc(-c2nc(-c3cnn(C4CN(C(=O)C(C)(C)O)C4)c3)cn3nccc23)cn1 [Example 176, 2-hydroxy-2-methyl-1-(3-(4-(4-(1-(pentan-3-yl)-1H-pyrazol-4-yl)pyrazolo[1,5-a]pyrazin-6-yl)-1H-pyrazol-1-yl)azetidin-1-yl)propan-1-one] | 6.00 to 7.00 | 5.00 to 6.00 | – | – | 6.00 to 7.00
8 | CCC(CC)n1cc(-c2nc(-c3cnn([C@H]4CC[C@@H](O)CC4)c3)cn3nccc23)cn1 [Example 121, cis-4-(4-(4-(1-(pentan-3-yl)-1H-pyrazol-4-yl)pyrazolo[1,5-a]pyrazin-6-yl)-1H-pyrazol-1-yl)cyclohexanol] | 7.00 to 8.00 | – | 7.00 to 8.00 | – | 6.00 to 7.00
9 | CCC(CC)n1cc(-c2nc(-c3cnn(C4CN(C(=O)C5(O)CC5)C4)c3)cn3nccc23)cn1 [Example 177, (1-hydroxycyclopropyl)(3-(4-(4-(1-(pentan-3-yl)-1H-pyrazol-4-yl)pyrazolo[1,5-a]pyrazin-6-yl)-1H-pyrazol-1-yl)azetidin-1-yl)methanone] | 7.00 to 8.00 | 5.00 to 6.00 | – | – | 6.00 to 7.00
10 | CCC(CC)n1cc(-c2nc(-c3cnn([C@H]4C[C@@](C)(O)C4)c3)cn3nccc23)cn1 [Example 162, (1s,3s)-1-methyl-3-(4-(4-(1-(pentan-3-yl)-1H-pyrazol-4-yl)pyrazolo[1,5-a]pyrazin-6-yl)-1H-pyrazol-1-yl)cyclobutanol] | 7.00 to 8.00 | – | > 8.00 | – | 6.00 to 7.00
